Key:
[1] = xn = mol fraction of the nth substance listed; details: 101.3 kPa, Liquid
[2] = excess molar enthalpy (molar enthalpy of mixing); xn = mol fraction of the nth substance listed; details: 318.15 K, 101.3 kPa, Liquid

CCCCCCCCC [nonane] + COC(=O)OC
[1]
Details	mass density [kg/m3]
293.15 K, x2 = 0	717.7
293.15 K, x2 = 0.0444	724.2
293.15 K, x2 = 0.0909	731.4
293.15 K, x2 = 0.1838	747.3
293.15 K, x2 = 0.28	766.3
293.15 K, x2 = 0.3783	789
293.15 K, x2 = 0.4778	815.8
293.15 K, x2 = 0.5789	847.5
293.15 K, x2 = 0.6816	885.9
293.15 K, x2 = 0.7851	932.5
293.15 K, x2 = 0.8921	991.9
293.15 K, x2 = 0.9461	1028.3
298.15 K, x2 = 0	713.9
298.15 K, x2 = 0.0247	717.5
298.15 K, x2 = 0.083	726.1
298.15 K, x2 = 0.1221	732.4
298.15 K, x2 = 0.1812	742.6
298.15 K, x2 = 0.2278	751.4
298.15 K, x2 = 0.317	770
298.15 K, x2 = 0.3986	789.4
298.15 K, x2 = 0.4701	808.5
298.15 K, x2 = 0.5281	825.7
298.15 K, x2 = 0.601	849.8
298.15 K, x2 = 0.6553	869.8
298.15 K, x2 = 0.7064	890.4
298.15 K, x2 = 0.7517	910.5
298.15 K, x2 = 0.7982	933
298.15 K, x2 = 0.8404	955.5
298.15 K, x2 = 0.8725	973.9
298.15 K, x2 = 0.9073	995.7
298.15 K, x2 = 0.9371	1015.5
298.15 K, x2 = 0.9711	1040.4
303.15 K, x2 = 0	710.1
303.15 K, x2 = 0.0444	716.3
303.15 K, x2 = 0.0909	723.3
303.15 K, x2 = 0.1838	738.9
303.15 K, x2 = 0.28	757.5
303.15 K, x2 = 0.3783	779.7
303.15 K, x2 = 0.4778	805.9
303.15 K, x2 = 0.5789	837
303.15 K, x2 = 0.6816	874.8
303.15 K, x2 = 0.7851	920.7
303.15 K, x2 = 0.8921	979.7
303.15 K, x2 = 0.9461	1015.6
313.15 K, x2 = 0	702.2
313.15 K, x2 = 0.0444	708.3
313.15 K, x2 = 0.0909	715.1
313.15 K, x2 = 0.1838	730.4
313.15 K, x2 = 0.28	748.7
313.15 K, x2 = 0.3783	770.5
313.15 K, x2 = 0.4778	796
313.15 K, x2 = 0.5789	826.7
313.15 K, x2 = 0.6816	864
313.15 K, x2 = 0.7851	909.4
313.15 K, x2 = 0.8921	967.3
313.15 K, x2 = 0.9461	1002.8
318.15 K, x2 = 0	698.1
318.15 K, x2 = 0.0409	703.8
318.15 K, x2 = 0.0763	709
318.15 K, x2 = 0.1089	714
318.15 K, x2 = 0.1249	716.6
318.15 K, x2 = 0.1452	719.9
318.15 K, x2 = 0.1957	728.5
318.15 K, x2 = 0.2309	735
318.15 K, x2 = 0.3153	751.7
318.15 K, x2 = 0.3894	768.3
318.15 K, x2 = 0.4732	789.6
318.15 K, x2 = 0.5442	810.1
318.15 K, x2 = 0.6088	831.2
318.15 K, x2 = 0.6356	840.8
318.15 K, x2 = 0.711	870.1
318.15 K, x2 = 0.761	891.8
318.15 K, x2 = 0.787	904
318.15 K, x2 = 0.8304	926
318.15 K, x2 = 0.8802	954.1
318.15 K, x2 = 0.9335	987.7
318.15 K, x2 = 0.9414	993.1
318.15 K, x2 = 0.972	1015

[2]
Details	excess molar enthalpy [kcal/mol]
x2 = 0	0
x2 = 0.1291	0.24
x2 = 0.2483	0.396
x2 = 0.3498	0.489
x2 = 0.4426	0.538
x2 = 0.5099	0.549
x2 = 0.573	0.55
x2 = 0.627	0.533
x2 = 0.6622	0.515
x2 = 0.6743	0.509
x2 = 0.7043	0.49
x2 = 0.748	0.455
x2 = 0.7814	0.427
x2 = 0.8236	0.378
x2 = 0.8663	0.316
x2 = 0.9069	0.25
x2 = 0.9415	0.18
x2 = 0.9752	0.098
